Measured values from publication PMC11181328 (Journal of Medicinal Chemistry, 2024).
Where a name gives a salt, the structure may show the parent alone. Read-outs that look alike come from different tables or passages of the source.

How the values were obtained:
[1] = target: T1, DOR (Homo sapiens, UniProt P41143); test: [35S]-GTPγS functional assay, DOR; type: biochemical; settings: for EC50: hDOR-CHO membranes; for Emax: percent of SNC80 full agonist control
T1 construct: expressed in transfected cells; membrane homogenate

[2] = target: T1, DOR; test: Competitive radioligand binding assay, DOR
[3] = target: T2, MOR (Mus musculus, UniProt P42866); test: Competitive radioligand binding assay, MOR; set-up: expressed in transfected cells; membrane homogenate
[4] = target: T2, MOR; settings: percent of DAMGO; MOR functional activity first published; cited from earlier work
[5] = target: T3, KOR (Mus musculus, UniProt P33534); test: [35S]-GTPγS functional assay, KOR; type: biochemical; settings: for EC50: mKOR-CHO membranes; for Emax: percent of U50,488 full agonist control
T3 construct: expressed in transfected cells; membrane homogenate

[6] = test system: male Swiss Webster mice; test: Warm-water tail immersion assay, agonism (single dose screen and potency); type: in vivo, mouse; settings: for antinociception compared to the vehicle group / percent MPE: single dose 10 mg/kg s.c.; for antinociception compared to the vehicle group: 20 min; for ED50: Mus musculus, sc, read-out: potency ED50 [95% CI] mg/kg, s.c., 20 min prior to tail withdrawal latency measurement, male Swiss Webster mice; for percent MPE: withdrawal latency 20 min after administration
[7] = target: T3, KOR; test: Competitive radioligand binding assay, KOR; settings: for selectivity ratio δ/κ / selectivity ratio μ/κ: ratio of Ki values
[8] = target: T2, MOR; test: [35S]-GTPγS functional assay, MOR; type: biochemical; set-up: expressed in transfected cells; membrane homogenate; settings: for EC50: mMOR-CHO membranes; for Emax: read-out: [35S]-GTPγS functional activity MOR Emax (%)
[9] = test system: male Swiss Webster mice; test: Warm-water tail immersion assay, antagonism of morphine; type: in vivo, mouse; settings: s.c. 5 min prior to morphine
[10] = in vitro; settings: Sprague-Dawley, rat, s9
[11] = in vitro; settings: human, s9
[12] = test system: male Swiss Webster mice; test: Warm-water tail immersion assay, time course study; type: in vivo, mouse
[13] = test system: male Swiss Webster mice; test: Locomotor activity assay; type: in vivo, mouse; settings: s.c., 30 min session
Experimental: This hypolocomotion could result in false positives in assays of evoked antinociception such as WWTI.[115] Thus, a locomotor activity assay was utilized to assess this end point in accordance with previous studies.[28] In brief, the day prior to testing, mice were placed in the open field chamber for acclimation. On the test day, they were injected with compounds 21, 23, NLF, or vehicle and immediately placed back into the open field chamber. Photo beam breaks then recorded the mouse’s locomotion over a 30 min test period.
Six open field activity chambers (Med Associates, St. Albans, VT) were used in the locomotor activity study. Each chamber is located inside a sound-attenuating cubicle (Med Associates) and is equipped with a ventilation system. The interior of the chamber consists of a 27 × 27 cm plexiglass enclosure wired with photobeam cells and connected to a computer console that monitors the activity of the animal.
The day before the experiment, mice were acclimated to the activity chambers for a period of 30 min. On the day of the experiment, mice were administered vehicle or test compound s.c., placed into the activity chambers immediately and activity was monitored and recorded for a period of 30 min.
The primary dependent measures are total (1) distance traveled (cm), (2) ambulatory counts, (3) vertical counts, and (4) average speed (cm/s) within the 30 min session. Data are shown as mean ± SEM. Data were compared using one-way or two-way ANOVA as appropriate and a significant ANOVA was followed by a Dunnet’s post hoc test as appropriate. Statistical significance was defined as p < 0.05.

[14] = test system: male Swiss Webster mice; test: Warm-water tail immersion assay, receptor selectivity study; type: in vivo, mouse
[15] = target: T1, DOR; settings: read-out: radioligand binding affinity (Ki, nM) DOR; [3H]diprenorphine; cited from earlier work
[16] = test system: male and female Sprague–Dawley rats; settings: intravenous, FR5 schedule of reinforcement, 2 h sessions
[17] = test system: male Swiss Webster mice; settings: warm-water tail immersion; cited from earlier work
[18] = [3H]naloxone, mMOR-CHO membranes
[19] = [3H]naloxone, mMOR-CHO membranes, read-out: radioligand binding affinity (Ki, nM) MOR
[20] = [3H]diprenorphine, mKOR-CHO membranes

## Cl.O=C(CCc1ccco1)N[C@@H]1CC[C@@]2(O)[C@H]3Cc4ccc(O)c5c4[C@@]2(CCN3CC2CC2)[C@H]1O5 [Compound 16, 17-Cyclopropylmethyl-3,14β-dihydroxy-4,5α-epoxy-6β-[3′-(furan-2″-yl)propanamido]morphinan Hydrochloride]
[1]
  EC50: 16.8 ± 2.96 nM
[2]; [3H]diprenorphine, hDOR-CHO membranes, read-out: radioligand binding affinity (Ki, nM) DOR
  Ki: 33 ± 3.58 nM
[3]; [18]
  radioligand binding affinity (Ki, nM) MOR: subnanomolar
[3]; [19]
  Ki: 0.28 ± 0.02 nM
[4]
  [35S]-GTPγS functional activity MOR Emax (%): above 40%
[5]
  EC50: 1.62 ± 0.12 nM
[6]
  antinociception compared to the vehicle group: lack of significant antinociceptive effect
[7]; [20]
  radioligand binding affinity (Ki, nM) KOR: subnanomolar
[7]; [3H]diprenorphine, mKOR-CHO membranes, read-out: radioligand binding affinity (Ki, nM) KOR
  Ki: 0.61 ± 0.07 nM

## Cl.O=C(CCc1ccoc1)N[C@@H]1CC[C@@]2(O)[C@H]3Cc4ccc(O)c5c4[C@@]2(CCN3CC2CC2)[C@H]1O5 [Compound 8, 17-Cyclopropylmethyl-3,14β-dihydroxy-4,5α-epoxy-6β-[3′-(furan-3″-yl)propanamido]morphinan Hydrochloride]
[3]; [18]
  radioligand binding affinity (Ki, nM) MOR: subnanomolar
[3]; [19]
  Ki: 0.21 ± 0.01 nM
[4]
  [35S]-GTPγS functional activity MOR Emax (%): above 40%
[5]
  Emax: 95.9 ± 1.43%
[6]
  antinociception compared to the vehicle group: lack of significant antinociceptive effect

## O=C(CCc1ccco1)N[C@@H]1CC[C@@]2(O)[C@H]3Cc4cccc5c4[C@@]2(CCN3CC2CC2)[C@H]1O5 [Compound 12, 17-Cyclopropylmethyl-4,5α-epoxy-6β-[3′-(furan-2″-yl)propanamido]-14β-hydroxymorphinan Hydrochloride]
[1]
  EC50: 2400 ± 200 nM
  Emax: 71 ± 6.1%
[2]
  Ki: 800 ± 96.7 nM
[3]
  Ki: 27.5 ± 2.9 nM
[5]
  EC50: 368 ± 31.8 nM
  Emax: 86.83 ± 0.69%
[6]
  antinociception compared to the vehicle group: lack of significant antinociceptive effect
[7]
  Ki: 23.6 ± 3.79 nM
  selectivity ratio δ/κ: 34
  selectivity ratio μ/κ: 1
[8]
  EC50: 104 ± 24.2 nM
  Emax: 10.8 ± 1.13%

## CN(C(=O)CCc1ccco1)[C@@H]1CC[C@@]2(O)[C@H]3Cc4ccc(O)c5c4[C@@]2(CCN3CC2CC2)[C@H]1O5 [Compound 15, 17-Cyclopropylmethyl-3,14β-dihydroxy-4,5α-epoxy-6β-[3′-(furan-2″-yl)-N-methylpropanamido]morphinan Hydrochloride]
[1]
  EC50: 16.9 ± 2.57 nM
  Emax: 38.6 ± 1.37%
[2]
  Ki: 7.32 ± 1.08 nM
[3]
  Ki: 0.66 ± 0.05 nM
[3]; [18]
  radioligand binding affinity (Ki, nM) MOR: subnanomolar
[5]
  EC50: 1.48 ± 0.17 nM
  Emax: 100.7 ± 1%
[6]
  ED50: 0.251 mg/kg
  percent MPE: ≥ 80%
[7]
  Ki: 0.32 ± 0.03 nM
[7]; [20]
  radioligand binding affinity (Ki, nM) KOR: subnanomolar
[8]
  EC50: 3.58 ± 0.59 nM
  Emax: 15.3 ± 0.5%

## C=CCN1CC[C@]23c4c5ccc(O)c4O[C@H]2C(=O)CC[C@@]3(O)[C@H]1C5 [naloxone, Naloxone HCl]
[9]
  blockade of morphine antinociception: sufficiently antagonized morphine antinociception

## Cl.O=C(CCc1ccoc1)N[C@H]1CC[C@@]2(O)[C@H]3Cc4ccc(O)c5c4[C@@]2(CCN3CC2CC2)[C@H]1O5 [Compound 6, 17-Cyclopropylmethyl-3,14β-dihydroxy-4,5α-epoxy-6α-[3′-(furan-3″-yl)propanamido]morphinan Hydrochloride]
[3]; [18]
  radioligand binding affinity (Ki, nM) MOR: subnanomolar
[3]; [19]
  Ki: 0.44 ± 0.1 nM
[4]
  [35S]-GTPγS functional activity MOR Emax (%): 27.62 ± 1.96%
[5]
  Emax: 80.3 ± 4.73%
[6]
  antinociception compared to the vehicle group: lack of significant antinociceptive effect

## CN(C(=O)CCc1ccco1)[C@H]1CC[C@@]2(O)[C@H]3Cc4ccc(O)c5c4[C@@]2(CCN3CC2CC2)[C@H]1O5 [Compound 13, 17-Cyclopropylmethyl-3,14β-dihydroxy-4,5α-epoxy-6α-[3′-(furan-2″-yl)-N-methylpropanamido]morphinan Hydrochloride]
[1]
  EC50: 0.66 ± 0.06 nM
  Emax: 63.1 ± 2.6%
[2]
  Ki: 0.37 ± 0.07 nM
[2]; [3H]diprenorphine, hDOR-CHO membranes
  radioligand binding affinity (Ki, nM) DOR: subnanomolar
[3]
  Ki: 0.15 ± 0.01 nM
[3]; [18]
  radioligand binding affinity (Ki, nM) MOR: subnanomolar
[5]
  EC50: 0.04 ± 0.01 nM
  Emax: 101 ± 2.5%
[6]
  ED50: 0.123 mg/kg
  percent MPE: ≥ 80%
[7]
  Ki: 0.12 ± 0.02 nM
[7]; [20]
  radioligand binding affinity (Ki, nM) KOR: subnanomolar
[8]
  EC50: 0.31 ± 0.04 nM
  Emax: 15.3 ± 1.08%

## CN(C(=O)/C=C/c1ccco1)[C@H]1CC[C@@]2(O)[C@H]3Cc4cccc5c4[C@@]2(CCN3CC2CC2)[C@H]1O5 [Compound 17, 17-Cyclopropylmethyl-4,5α-epoxy-6α-[(2E)-3′-(furan-2″-yl)N-methylprop-2-enamido]-14β-hydroxymorphinan Hydrochloride]
[1]
  EC50: 440 ± 32.2 nM
[2]
  Ki: 68.4 ± 11.2 nM
[3]
  Ki: 16.8 ± 1.34 nM
[5]
  EC50: 5.97 ± 0.42 nM
  Emax: 110 ± 7.9%
[6]
  ED50: 7.8 mg/kg
  percent MPE: ≥ 80%
[7]
  Ki: 0.62 ± 0.04 nM
  selectivity ratio δ/κ: 110
  selectivity ratio μ/κ: 27
[7]; [20]
  radioligand binding affinity (Ki, nM) KOR: subnanomolar
[8]
  EC50: 125 ± 17.1 nM
  Emax: 22.9 ± 2.01%

## O=C(O)Cc1ccccc1Nc1c(Cl)cccc1Cl [diclofenac, reference compound]
[10]
  half-life at 1 h, 1 µM: 1.7 h
  microsomal CLint at 1 h, 1 µM: 6.8 µL/min/mg
[11]
  half-life at 1 h, 1 µM: 0.308 h
  microsomal CLint at 1 h, 1 µM: 37.4 µL/min/mg

## CN1CC[C@]23c4c5ccc(O)c4O[C@H]2[C@@H](O)C=C[C@H]3[C@H]1C5 [morphine, (-)-Morphine sulfate pentahydrate, reference compound]
[12]; morphine 10 mg/kg s.c.
  effects back to baseline: 5 h
  time of significant antinociception postinjection: 30 to 60 min
[6]
  percent MPE: 100%

## CN(C(=O)/C=C/c1ccoc1)[C@@H]1CC[C@@]2(O)[C@H]3Cc4ccc(O)c5c4[C@@]2(CCN3CC2CC2)[C@H]1O5.Cl [NLF, Nalfurafine, reference compound]
[13]
  locomotor activity: slight dose-dependent trends for decreased locomotion
[13]; Figure 6F–H
  average speed by time versus vehicle: significantly different from vehicle
[14]; 10 mg/kg nor-BNI s.c. 24 h prior to 0.1 mg/kg test compound s.c. (23 also 0.05 mg/kg)
  antagonism of antinociceptive effects by nor-BNI (KOR antagonist) pretreatment: significantly lower
[14]; 10 mg/kg β-FNA s.c. 24 h prior to 0.1 mg/kg test compound s.c.
  antagonism of antinociceptive effects by β-FNA (MOR antagonist) pretreatment: not antagonized by β-FNA
[14]; 15 mg/kg NTI s.c. 30 min prior to 0.1 mg/kg test compound s.c. (23 also 0.05 mg/kg)
  antagonism of antinociceptive effects by NTI (DOR antagonist) pretreatment: significantly lower
[14]; nor-BNI 10 mg/kg + NTI 15 mg/kg s.c. prior to test compound
  antagonism of antinociceptive effects by NTI and nor-BNI pretreatment together: did not result in a more drastic decrease than either antagonist alone
[12]; 0.1 mg/kg s.c.
  antinociceptive effects significant until (time postinjection): 1 h
  return to the baseline postinjection: 9 h
[15]
  Ki: 116 ± 20.9 nM
[16]
  reinforcing effect (number of infusions earned versus saline): did not function as a reinforcer
[17]
  potency ED50 [95% CI] mg/kg: 0.046 [0.016–0.126] mg/kg

## O=C(CCc1ccco1)N[C@H]1CC[C@@]2(O)[C@H]3Cc4cccc5c4[C@@]2(CCN3CC2CC2)[C@H]1O5 [Compound 10, 17-Cyclopropylmethyl-4,5α-epoxy-6α-[3′-(furan-2″-yl)propanamido]-14β-hydroxymorphinan Hydrochloride]
[1]
  EC50: 348 ± 40.2 nM
  Emax: > 80%
[2]
  Ki: 90.2 ± 13 nM
[3]
  Ki: 53.1 ± 6.06 nM
[5]
  EC50: 442 ± 29.9 nM
  Emax: 86.5 ± 1.55%
[6]
  antinociception compared to the vehicle group: lack of significant antinociceptive effect
[7]
  Ki: 73.8 ± 12.2 nM
  selectivity ratio δ/κ: 1
  selectivity ratio μ/κ: 1
[7]; supplement csv
  Selectivity Ratio DOR/KOR: 1
  Selectivity Ratio MOR/KOR: 1
[8]
  EC50: 278 ± 107 nM
  Emax: 10.2 ± 1.33%
